Results reported in ChEMBL document CHEMBL3853314, “G-Protein-Coupled Receptor Kinase 2 (GRK2) Inhibitors: Current Trends and Future Perspectives” (J Med Chem, 2016).
Peptide text beside a SMILES is read from it.

What was measured:
[1] = biological target: Beta-adrenergic receptor kinase 1 (Bos taurus, UniProt P21146, S670A); assay: Inhibition of bovine GRK2 expressed in Sf9 insect cells assessed as decrease in phosphorylation of urea-washed bovine rod outer segments in presence of Gbetagamma subunits and [gamma-32P]-ATP after 5 to 60 mins by SDS-PAGE analysis
Sequence of Beta-adrenergic receptor kinase 1 (P21146 whole entry S670A): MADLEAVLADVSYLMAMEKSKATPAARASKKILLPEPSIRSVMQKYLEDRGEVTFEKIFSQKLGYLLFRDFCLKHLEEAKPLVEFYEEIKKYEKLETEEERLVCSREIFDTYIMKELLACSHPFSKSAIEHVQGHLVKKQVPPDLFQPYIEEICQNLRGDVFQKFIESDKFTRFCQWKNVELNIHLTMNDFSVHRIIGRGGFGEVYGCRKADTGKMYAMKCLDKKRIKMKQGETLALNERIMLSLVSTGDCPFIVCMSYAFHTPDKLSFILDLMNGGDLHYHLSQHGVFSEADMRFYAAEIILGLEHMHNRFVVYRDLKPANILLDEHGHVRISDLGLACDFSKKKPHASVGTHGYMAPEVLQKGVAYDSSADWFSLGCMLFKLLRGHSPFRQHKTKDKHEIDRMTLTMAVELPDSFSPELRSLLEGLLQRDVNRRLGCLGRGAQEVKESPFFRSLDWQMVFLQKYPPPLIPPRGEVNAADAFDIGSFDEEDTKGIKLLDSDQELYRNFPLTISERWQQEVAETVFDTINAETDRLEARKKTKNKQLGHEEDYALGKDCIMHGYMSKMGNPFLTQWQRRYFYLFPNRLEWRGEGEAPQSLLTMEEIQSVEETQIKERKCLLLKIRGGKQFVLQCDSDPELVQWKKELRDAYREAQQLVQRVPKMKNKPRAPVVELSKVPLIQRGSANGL

[2] = biological target: T1, G protein-coupled receptor kinase 3 (Bos taurus, UniProt P26818); assay: Inhibition of recombinant bovine GRK3 expressed in Sf9 insect cells assessed as decrease in phosphorylation of urea-washed bovine rod outer segments in presence of Gbetagamma subunits and [gamma-32P]-ATP after 5 to 60 mins by SDS-PAGE analysis
T1 sequence (P26818 whole entry): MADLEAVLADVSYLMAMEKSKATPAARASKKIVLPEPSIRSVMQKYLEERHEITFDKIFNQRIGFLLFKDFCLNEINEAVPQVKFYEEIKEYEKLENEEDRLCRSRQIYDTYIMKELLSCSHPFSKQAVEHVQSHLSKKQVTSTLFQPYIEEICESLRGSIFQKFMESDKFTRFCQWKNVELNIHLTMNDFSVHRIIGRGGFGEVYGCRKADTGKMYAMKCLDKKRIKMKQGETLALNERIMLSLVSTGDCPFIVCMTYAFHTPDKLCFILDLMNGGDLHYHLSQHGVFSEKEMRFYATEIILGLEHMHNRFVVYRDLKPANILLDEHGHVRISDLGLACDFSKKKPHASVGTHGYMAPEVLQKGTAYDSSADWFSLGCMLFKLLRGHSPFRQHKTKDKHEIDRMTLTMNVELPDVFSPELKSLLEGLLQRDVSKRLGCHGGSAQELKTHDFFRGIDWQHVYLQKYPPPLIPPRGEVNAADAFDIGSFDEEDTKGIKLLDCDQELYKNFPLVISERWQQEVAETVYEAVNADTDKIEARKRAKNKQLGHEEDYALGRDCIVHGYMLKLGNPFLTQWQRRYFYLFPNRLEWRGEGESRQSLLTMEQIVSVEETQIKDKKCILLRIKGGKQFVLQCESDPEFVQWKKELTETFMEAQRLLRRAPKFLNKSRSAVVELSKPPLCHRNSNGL

[3] = biological target: G protein-coupled receptor kinase 5 (Homo sapiens, UniProt P34947); assay: Inhibition of recombinant human GRK5 expressed in Sf9 insect cells assessed as decrease in phosphorylation of urea-washed bovine rod outer segments in presence of Gbetagamma subunits and [gamma-32P]-ATP after 5 to 60 mins by SDS-PAGE analysis
Sequence of G protein-coupled receptor kinase 5 (P34947 whole entry): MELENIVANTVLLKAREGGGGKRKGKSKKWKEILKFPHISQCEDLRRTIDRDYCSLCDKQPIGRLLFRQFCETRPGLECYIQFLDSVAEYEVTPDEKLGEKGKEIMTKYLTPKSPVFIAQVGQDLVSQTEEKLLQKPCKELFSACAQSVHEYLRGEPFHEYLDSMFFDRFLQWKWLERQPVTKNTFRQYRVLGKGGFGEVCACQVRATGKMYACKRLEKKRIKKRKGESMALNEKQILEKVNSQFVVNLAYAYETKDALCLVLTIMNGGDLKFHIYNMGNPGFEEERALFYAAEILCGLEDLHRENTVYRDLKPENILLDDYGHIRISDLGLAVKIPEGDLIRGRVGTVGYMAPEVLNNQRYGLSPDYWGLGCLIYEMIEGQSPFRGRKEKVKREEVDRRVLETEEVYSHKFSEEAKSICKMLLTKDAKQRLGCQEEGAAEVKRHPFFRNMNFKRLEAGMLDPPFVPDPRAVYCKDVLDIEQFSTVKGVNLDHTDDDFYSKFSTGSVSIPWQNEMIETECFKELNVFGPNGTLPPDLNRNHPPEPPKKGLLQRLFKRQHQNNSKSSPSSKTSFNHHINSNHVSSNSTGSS

[4] = Inhibition of PKA (unknown origin) using LRRASLG as substrate incubated for 30 mins by ADP-Glo assay; set-up: species or system Homo sapiens

Row | IC50 [1] | IC50 [2] | IC50 [3] | IC50 [4] | SMILES
1 | 36.5 µM | 30.4 µM | 61.3 µM |  | CC[C@H](C)[C@H](NC(=O)[C@H](C)NC(=O)[C@@H](NC(=O)[C@@H](N)CCCCN)[C@@H](C)O)C(=O)N[C@@H](C)C(=O)N[C@@H](CCCCN)C(=O)N[C@@H](Cc1ccccc1)C(=O)N[C@@H](CCC(=O)O)C(=O)N[C@@H](CCCNC(=N)N)C(=O)N[C@@H](CC(C)C)C(=O)N[C@@H](CCC(N)=O)C(=O)N[C@H](C(=O)N[C@H](C(=O)N[C@H](C(=O)N[C@@H](CC(N)=O)C(=O)N[C@@H](Cc1ccc(O)cc1)C(=O)N[C@@H](Cc1ccccc1)C(=O)N[C@H](C(=O)N[C@H](C(=O)N[C@@H](CO)C(=O)N[C@@H](CCCCN)C(=O)O)[C@@H](C)O)[C@@H](C)CC)[C@@H](C)O)C(C)C)[C@@H](C)O (H-KTAIAKFERLQTVTNYFITSK-OH)
2 |  |  |  | 63.1 µM | CC1=C(C(=O)Nc2ccc3[nH]ncc3c2)C(c2ccc(Cl)c(Cl)c2)CC(=O)N1 (stereo not drawn) [GSK-299115A]
3 | 52.2 µM | 22.6 µM | 7.4 µM |  | CC[C@H](C)[C@H](NC(=O)[C@H](C)NC(=O)[C@@H](NC(=O)[C@@H](N)CCC(=O)O)[C@@H](C)O)C(=O)N[C@@H](C)C(=O)N[C@@H](CCCCN)C(=O)N[C@@H](Cc1ccccc1)C(=O)N[C@@H](CCC(=O)O)C(=O)N[C@@H](CCCNC(=N)N)C(=O)N[C@@H](CC(C)C)C(=O)N[C@@H](CCC(N)=O)C(=O)N[C@H](C(=O)N[C@H](C(=O)N[C@H](C(=O)N[C@@H](CC(N)=O)C(=O)N[C@@H](Cc1ccc(O)cc1)C(=O)N[C@@H](Cc1ccccc1)C(=O)N[C@H](C(=O)N[C@H](C(=O)N[C@@H](CO)C(=O)N[C@@H](CCCCN)C(=O)O)[C@@H](C)O)[C@@H](C)CC)[C@@H](C)O)C(C)C)[C@@H](C)O (H-ETAIAKFERLQTVTNYFITSK-OH)
4 | 5.6 µM | 11.6 µM | 2.1 µM |  | CC[C@H](C)[C@H](NC(=O)[C@H](C)NC(=O)[C@@H](NC(=O)[C@@H](N)CCCCN)[C@@H](C)O)C(=O)N[C@@H](C)C(=O)N[C@@H](CCCCN)C(=O)N[C@@H](Cc1ccccc1)C(=O)N[C@@H](CCC(=O)O)C(=O)N[C@@H](CCCNC(=N)N)C(=O)N[C@@H](CC(C)C)C(=O)N[C@@H](CCC(N)=O)C(=O)N[C@H](C(=O)N[C@H](C(=O)N[C@H](C(=O)N[C@@H](CC(N)=O)C(=O)O)[C@@H](C)O)C(C)C)[C@@H](C)O (H-KTAIAKFERLQTVTN-OH)
5 |  |  |  | 50.1 µM | CC1=C(C(=O)Nc2ccc3[nH]ncc3c2)C(c2ccc3ccccc3c2)CC(=O)N1 (stereo not drawn) [GSK-270822A]
6 | 0.6 µM | 1.5 µM | 1.6 µM |  | CC[C@H](C)[C@H](NC(=O)[C@H](Cc1ccccc1)NC(=O)[C@H](Cc1ccc(O)cc1)NC(=O)[C@H](CC(N)=O)NC(=O)[C@@H](NC(=O)[C@@H](NC(=O)[C@@H](NC(=O)[C@H](CCC(N)=O)NC(=O)[C@H](CC(C)C)NC(=O)[C@H](CCCNC(=N)N)NC(=O)[C@H](CCC(=O)O)NC(=O)[C@H](Cc1ccccc1)NC(=O)[C@H](CCCCN)NC(=O)[C@H](C)N)[C@@H](C)O)C(C)C)[C@@H](C)O)C(=O)N[C@H](C(=O)N[C@@H](CO)C(=O)N[C@@H](CCC(=O)O)C(=O)O)[C@@H](C)O (H-AKFERLQTVTNYFITSE-OH)
7 | 4.4 µM | 6.1 µM | 3.9 µM |  | CC[C@H](C)[C@H](NC(=O)[C@H](C)NC(=O)[C@@H](NC(=O)[C@@H](N)CCCCN)[C@@H](C)O)C(=O)N[C@@H](C)C(=O)N[C@@H](CCCCN)C(=O)N[C@@H](Cc1ccccc1)C(=O)N[C@@H](CCC(=O)O)C(=O)N[C@@H](CCCNC(=N)N)C(=O)N[C@@H](CC(C)C)C(=O)N[C@@H](CCC(N)=O)C(=O)N[C@H](C(=O)N[C@H](C(=O)N[C@H](C(=O)N[C@@H](CC(N)=O)C(=O)N[C@@H](Cc1ccc(O)cc1)C(=O)N[C@@H](Cc1ccccc1)C(=O)N[C@H](C(=O)N[C@H](C(=O)N[C@@H](CO)C(=O)N[C@@H](CCC(=O)O)C(=O)O)[C@@H](C)O)[C@@H](C)CC)[C@@H](C)O)C(C)C)[C@@H](C)O (H-KTAIAKFERLQTVTNYFITSE-OH)
8 |  |  |  | > 500 µM | CC1=C(C(=O)Nc2ccc3[nH]ncc3c2)C(c2ccc(F)cc2)NC(=O)N1 (stereo not drawn) [GSK-180736A]
